Data published in PubChem BioAssay (NCI).
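Cultured in 96-well plates, cells were exposed to test compound for 48 hours across five concentrations. Definition used: TGI = concentration required for complete inhibition of growth.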

Key:
Experiment in all cases: NCI tumour cell line growth inhibition, 48 h
SF-539 CNS = system: SF-539 CNS
SK-MEL-5 melanoma = system: SK-MEL-5 melanoma
HCC-2998 colon = system: HCC-2998 colon
T-47D breast = system: T-47D breast
OVCAR-8 ovarian = system: OVCAR-8 ovarian
M14 melanoma = system: M14 melanoma
DU-145 prostate = system: DU-145 prostate
NCI-H23 lung = system: NCI-H23 lung
SK-MEL-28 melanoma = system: SK-MEL-28 melanoma
MCF7 breast = system: MCF7 breast
SK-MEL-2 melanoma = system: SK-MEL-2 melanoma
U251 CNS = system: U251 CNS
UACC-62 melanoma = system: UACC-62 melanoma
OVCAR-3 ovarian = system: OVCAR-3 ovarian
NCI-H226 lung = system: NCI-H226 lung
SK-OV-3 ovarian = system: SK-OV-3 ovarian
HOP-62 NSCLC = system: HOP-62 NSCLC
CCRF-CEM leukemia = system: CCRF-CEM leukemia
NCI-H522 lung = system: NCI-H522 lung
OVCAR-4 ovarian = system: OVCAR-4 ovarian
ACHN renal = system: ACHN renal
K-562 leukemia = system: K-562 leukemia
LOX IMVI melanoma = system: LOX IMVI melanoma
MDA-MB-435 = system: MDA-MB-435
COLO 205 colon = system: COLO 205 colon
OVCAR-5 ovarian = system: OVCAR-5 ovarian
SW-620 colon = system: SW-620 colon
HL-60(TB) leukemia = system: HL-60(TB) leukemia
RPMI-8226 leukemia = system: RPMI-8226 leukemia
EKVX NSCLC = system: EKVX NSCLC
CAKI-1 renal = system: CAKI-1 renal
HCT-15 colon = system: HCT-15 colon
TK-10 renal = system: TK-10 renal
UO-31 renal = system: UO-31 renal
BT-549 breast = system: BT-549 breast
KM12 colon = system: KM12 colon
UACC-257 melanoma = system: UACC-257 melanoma
786-0 renal = system: 786-0 renal
SR leukemia = system: SR leukemia
SNB-75 CNS = system: SNB-75 CNS
NCI-H460 lung = system: NCI-H460 lung
MDA-MB-231 breast = system: MDA-MB-231 breast
RXF 393 renal = system: RXF 393 renal
MOLT-4 leukemia = system: MOLT-4 leukemia
A549 NSCLC = system: A549 NSCLC
SF-268 CNS = system: SF-268 CNS
SF-295 CNS = system: SF-295 CNS
IGROV1 ovarian = system: IGROV1 ovarian
A498 renal = system: A498 renal
HT29 colon = system: HT29 colon
SN12C renal = system: SN12C renal
NCI/ADR-RES ovarian = system: NCI/ADR-RES ovarian
HCT-116 colon = system: HCT-116 colon
PC-3 prostate = system: PC-3 prostate
HOP-92 NSCLC = system: HOP-92 NSCLC

## C[N+](C)(C)CC(=O)N/N=C(\Cc1nc2ccc([N+](=O)[O-])cc2[nH]c1=O)C(=O)Nc1nc2ccc([N+](=O)[O-])cc2s1
SF-539 CNS
  TGI: > 100 µM
SK-MEL-5 melanoma
  TGI: > 100 µM
HCC-2998 colon
  TGI: > 100 µM
T-47D breast
  TGI: > 100 µM
OVCAR-8 ovarian
  TGI: > 100 µM
M14 melanoma
  TGI: > 100 µM
DU-145 prostate
  TGI: > 100 µM
NCI-H23 lung
  TGI: > 100 µM
SK-MEL-28 melanoma
  TGI: > 100 µM
MCF7 breast
  TGI: > 100 µM
SK-MEL-2 melanoma
  TGI: > 100 µM
U251 CNS
  TGI: > 100 µM
UACC-62 melanoma
  TGI: > 100 µM
OVCAR-3 ovarian
  TGI: > 100 µM
NCI-H226 lung
  TGI: > 100 µM
SK-OV-3 ovarian
  TGI: > 100 µM
HOP-62 NSCLC
  TGI: > 100 µM
CCRF-CEM leukemia
  TGI: > 100 µM
NCI-H522 lung
  TGI: 79.8 µM
OVCAR-4 ovarian
  TGI: > 100 µM
ACHN renal
  TGI: > 100 µM
K-562 leukemia
  TGI: > 100 µM
LOX IMVI melanoma
  TGI: > 100 µM
MDA-MB-435
  TGI: > 100 µM
COLO 205 colon
  TGI: > 100 µM
OVCAR-5 ovarian
  TGI: > 100 µM
SW-620 colon
  TGI: > 100 µM
HL-60(TB) leukemia
  TGI: > 100 µM
RPMI-8226 leukemia
  TGI: > 100 µM
EKVX NSCLC
  TGI: > 100 µM
CAKI-1 renal
  TGI: 92 µM
HCT-15 colon
  TGI: > 100 µM
TK-10 renal
  TGI: > 100 µM
UO-31 renal
  TGI: > 100 µM
BT-549 breast
  TGI: 94.3 µM
KM12 colon
  TGI: > 100 µM
UACC-257 melanoma
  TGI: > 100 µM
786-0 renal
  TGI: > 100 µM
SR leukemia
  TGI: > 100 µM
SNB-75 CNS
  TGI: > 100 µM
NCI-H460 lung
  TGI: > 100 µM
MDA-MB-231 breast
  TGI: > 100 µM
RXF 393 renal
  TGI: > 100 µM
MOLT-4 leukemia
  TGI: > 100 µM
A549 NSCLC
  TGI: > 100 µM
SF-268 CNS
  TGI: > 100 µM
SF-295 CNS
  TGI: > 100 µM
IGROV1 ovarian
  TGI: > 100 µM
A498 renal
  TGI: > 100 µM
HT29 colon
  TGI: > 100 µM
SN12C renal
  TGI: > 100 µM
NCI/ADR-RES ovarian
  TGI: > 100 µM
HCT-116 colon
  TGI: > 100 µM
PC-3 prostate
  TGI: > 100 µM
HOP-92 NSCLC
  TGI: > 100 µM
